Results reported in patent US9345793B2, “Compounds for binding to the platelet specific glycoprotein IIB/IIIA and their use for imaging of thrombi” (PIRAMAL IMAGING SA, priority 2011, dated 2016).
Several values for one entry are separate records, joined by “and”; a condition that tells them apart may be missing. Equal values may be shown once. Entries after “also recorded” stand apart in the source; their conditions may differ.

Assays:
[1] = Blood clearance in a cynomolgus monkey (PET and gamma counter); type: in vivo
Method: Blood kinetics of the compound described in example 40 in cynomolgus monkey. PET-imaging was performed continuously from shortly before up to 60 minutes post injection. Venous blood samples were taken at 3, 10, 30 and 60 minutes p.i. and were measured in a gamma-counter (Automatic Gamma Counter Wizard^2 3, Perkin Elmer) and expressed as cpm/mg blood. Additionally, the blood-concentration of the compound was measured from the PET-Image over the whole imaging period and expressed as % ID/g.
The blood clearance of the compound described in example 40 has been determined in a cynomolgus monkey. A female cynomolgus monkey was anesthetized with a mixture of Xylazin (Rompun®, Bayer HealthCare, Leverkusen, Germany), 0.12 mL/kg bodyweight and Ketamine (Ketavet®, Pfizer) 0.12 mL/kg bodyweight i.m. The monkey was placed inside the PET-scanner (Inveon PET/CT, Siemens Medical, Erlangen) and 25 MBq of the compound has been injected i.v. while PET-imaging was performed continuously from shortly before up to 60 minutes post injection. Venous blood samples were taken at 3, 10, 30 and 60 minutes p.i. and were measured in a gamma-counter (Automatic Gamma Counter Wizard^2 3, Perkin Elmer). Additionally, the blood-concentration of the compound was measured from the PET-Image over the whole imaging period (FIG. 4).

[2] = tested on: arterial and venous thrombi; experiment: Thrombus PET imaging and in vivo clot-to-blood ratio in cynomolgus monkeys; parameters: species or system cynomolgus monkey
Method: The ability of the compound described in example 40 for the imaging of thrombi was investigated in a PET-study with cynomolgus monkeys (female, 2.8-3.2 kg).
The first monkey was anesthetized with a mixture of Xylazin (Rompun®, Bayer HealthCare, Leverkusen, Germany), 0.12 mL/Kg and Ketamine (Ketavet®, Pfizer) 0.12 mL/Kg b.w. i.m. and additionally analgesized by an i.m. injection of 6 μg Buprenorphine per kg. While the investigation, small amounts of Ketamine have been injected i.m. if required. The left common carotid artery was exposed surgically and a polyethylene-tube ([…] Polyethylene Tubing, Clay Adams, PE50), which was roughened previously by sandpaper (600—CAMI Grit designation), was inserted into the vessel, advanced into the descending aorta and was left there for 30 minutes to allow for the development of a thrombus on the rough surface of the tube. Meanwhile, the monkey was placed inside the PET-scanner (Inveon PET/CT, Siemens Medical, Erlangen). […] The thickness of this layer was far below 1 mm (see also removed thrombus of Monkey 2, FIG. 7) and therewith also far below the resolution of the image, which is approximately 1 mm. This also means, that even slightest thrombi, even if their size is far less than the resolution of the imaging-device, can be visualized due to the massive accumulation of compound on the platelets of the thrombi. At the end of the experiment the tube was removed carefully from the vessel before it was weighted and measured in a gamma counter (Automatic Gamma Counter Wizard^2 3, Perkin Elmer). Then the thrombus together with the tube was incubated in Plasmin-solution (Plasmin from Human Plasma, Sigma Aldrich, Plasmin-stock-solution: 500 μg Plasmin in 500 μL Tris-buffer (150 μM, pH 7.8), 20 μL Plasmin-stock-solution to 230 μL saline solution 0.9%) for 48 hours to separate the platelets from the tube and to determine the netto weight of the thrombus. Finally the activity of the compound in blood and thrombus as well as the ratio between the two was determined (cpm/weight [mg]).
The experiment was repeated with the same compound in another monkey with a slightly different preparation of the thrombogenic tube: This tube was roughened at only two short sections with a gap in between. Apart from that, the experimental design including the determination of the in vivo clot-to-blood ratio was as described above for monkey 1.
The experiment was repeated with the same compound in another monkey, but with the reduced dose of 15 MBq for the whole animal. In addition to the arterial catheter, this animal also received a venous catheter, also made of PE50-catheter-tube and roughened at some parts with gaps in between as described above. […]
The in vivo clot-to-blood ratio was determined from 5 thrombi out of the above described monkey experiments. As already mentioned above the thrombi had been removed from the vessels after imaging and had been weighted and measured in a gamma-counter (Automatic Gamma Counter Wizard^2 3, Perkin Elmer) together with blood samples taken from the animal. After incubation of the thrombi in Plasmin (Plasmin from Human Plasma, Sigma Aldrich, Plasmin-stock-solution: 500 μg Plasmin in 500 μL Tris-buffer (150 μM, pH 7.8), 20 μL Plasmin-stock-solution to 230 μL saline solution 0.9%) and removal of the thrombi from the catheter tubes, the netto weight of the thrombi was calculated and the concentration of the compound in thrombus (clot) and blood, as well as the ratio between the two was calculated.

human thrombi = experiment: Ex vivo blood flow model: binding to human thrombi, incl. competition with cold compound; details: ± SEM
Text: The binding of compounds to thrombi was further investigated in an ex vivo blood flow model similar to that described in “Wakhloo, A. K. et al. Thrombus and stroke 2008, in vitro models 57-66” but modified with regard to thrombus development. Briefly, an open handmade tube-set consisting of tygon-tubes (Tygon R-1000, part N^O AAU00007: I.D. 3.2 mm, O.D. 6.4 mm, Saint Gobain Performance Plastics North America), intermediate tubes (Intrafix® Infusion set, B. Braun, Melsungen, Germany) an open reservoir (10 mL Combitip, Eppendorf) and a chamber made of a piece of polyethylene-Tube, ([…] Polyethylene Tubing, Clay Adams, PE160, length: 6.5 cm) containing a loop of a roughened thread (fishing line: Okuma UltraMax whitefish, diameter: 0.14 mm, length: 5 cm; sandpaper: CAMI Grit designation: 600, CP918a, VSM) was used for thrombus formation. The connection between the intermediate tube and the thrombus chamber was made by trimmed tips (epTIPS, 200 μL, Eppendorff, Hamburg/Germany). The Reservoir and the thrombus chamber were fixed by clamps and stands. A peristaltic-pump (Minipuls 3, Gilson, Middelton/USA) was used to pump the blood around thereby adjusting the flow in the middle of the thrombus chamber to 70-90 cm per second, which was monitored by ultrasound Doppler measurement (Vevo 770 High-Resolution In Vivo Micro-Imaging System, VisualSonics, TorontoOntario, Canada; Scanhead: RMV 704, 40 MHz). The volume of the entire tube-set was 7.5 or 15 mL.
For each experiment fresh blood was taken from a volunteer using 10 mL citrate-tubes (Sarstedt S-Monovette 02.1067.001, 10 mL, Citrate 3.13%) and immediately laid into the turning-device of an incubator at a temperature of 37° C. (Heraeus miniTherm CTT with integrated rotation- and turning device, turning speed: 19 rotations per minute, Heraeus Instruments GmbH, Hanau/Germany). As needed, two tubes were taken out of the turning-device and 15 mL were transferred to a 20 mL Syringe (Omnifix®, B. Braun, Melsungen/Germany) and gently mixed with 0.75 mL CaCl2-Solution before the peristaltic pump was started and the whole content of the syringe was transferred into the reservoir of the tube-set via a cell strainer (BD Falcon™ cell strain, 40 μm, BD, Franklin Lakes, N.J. USA). After 7 minutes 1 MBq or 0.5 MBq (15 mL or 7.5 mL) of the compound was added to the reservoir by means of a pipette, thereby mixing the content gently with the tip of the pipette. The blood was left circulating for another 3 minutes. Then, the pump was stopped, aliquots were taken from the blood and the thrombus together with the roughened thread was removed from the thrombus-chamber before both was weighted and measured in a gamma counter (Automatic Gamma Counter Wizard^2 3, Perkin Elmer). Then the thrombus together with the thread was incubated in Plasmin-solution (Plasmin from Human Plasma, Sigma Aldrich, stock-solution: 500 μg in 500 μL 150 μM Tris-buffer (pH 7.8), 20 μL stock-solution to 230 μL saline solution 0.9%) for 48 hours to separate the platelets from the thread and to determine the netto weight of the thrombus. Finally the activity of the compound in blood and thrombus as well as the ratio between both was determined (cpm/weight [mg]).
To verify the specificity of the compound, a competition experiment was conducted in which the cold compound was added to the reservoir together with the hot compound. The final plasma concentration of the cold compound was 2.8 μM.

contrast in the brain ([1]; PET): completely free of contrast
Blood ([2]; blood sample of the animal, Cynomolgus monkey): 90 cpm/mg and 130 cpm/mg and 100 cpm/mg
SMILES: O=C(O)C[C@H](NC(=O)[C@@H]1CCCN(C(=O)CCC2CCNCC2)C1)c1cncc(OCC[18F])c1 [Example 40, (3S)-3-[5-(2-[^18F]Fluoroethoxy)pyridin-3-yl]-3-[({(3R)-1-[3-(piperidin-4-yl)propanoyl]piperidin-3-yl}carbonyl)amino]propanoic acid]
blood clearance ([1]; 25 MBq i.v., up to 60 minutes p.i.): rapidly cleared from the blood; also recorded: rapidly eliminated from the blood
signal in other tissue ([1]; PET): only marginal signal visible in any other tissue
retention within the thrombus ([2]; 60 minutes were shown): almost completely remains within the thrombus
Clot/Blood mean (in vivo clot-to-blood ratio) ([2]; mean of 5 thrombi, sd 52): 126+/−52 and 126
background in surrounding tissue or organ ([2]; monkeys, PET): almost no background in any surrounding tissue or organ
accumulation in venous and arterial thrombi ([2]; monkeys, PET, 15-25 MBq i.v.): surprisingly high accumulation
in vitro clot-to-blood ratio (human thrombi; 3 minutes post-injection of 18F-labeled compound): 71 ± 4 (n = 3)
Accumulation Thrombus (human thrombi; 3 minutes post-injection of 18F-labeled compound, without cold compound): 202 ± 11 (n = 3) 10^3 cpm/mg
Thrombus competition (human thrombi; cold compound added with hot compound, final plasma concentration 2.8 μM, 3 minutes): 8 ± 1 (n = 3) 10^3 cpm/mg
